Assay results published in US12180170B1, “2-(5-(3-fluorophenyl)-4-phenyl-4H-1,2,4-triazol-3-ylthio)acetic acid as an antimicrobial compound” (KING FAISAL UNIVERSITY, priority 2023, dated 2024).

Columns and labels:
Format in all cases: cell-based
[1] = test system: Bacillus cereus; test: Agar plate disc-diffusion, antibacterial inhibition zone; conditions: nutrient agar, 37° C., 48 h, DMSO control zone subtracted
Method: (§1) The agar plate disc-diffusion method was applied. […] The discs were then placed onto the surface of agar plates (nutrient agar for bacteria and Sabouraud's dextrose agar for fungi) seeded with the test organism. Each plate contained 15 mL of the agar medium, previously seeded with 0.2 mL of the broth culture of each organism pregrown for 18 h. The plates were incubated at 37° C. for 48 h, and 72 h for fungi. The inhibition zones was measured in mm. Discs impregnated with DMSO were used as a control, and its inhibition zone was subtracted from the tested compound actual inhibition zone.

[2] = test system: Escherichia coli; test: as above; conditions: nutrient agar, 37° C., 48 h, DMSO control zone subtracted
Method: as §1

[3] = test system: Pseudomonas aeruginosa; test: as above; conditions: nutrient agar, 37° C., 48 h, DMSO control zone subtracted
Method: as §1

[4] = test system: Staphylococcus aureus; test: as above; conditions: nutrient agar, 37° C., 48 h, DMSO control zone subtracted
Method: as §1

[5] = test system: Aspergillus flavus; test: Agar plate disc-diffusion, antifungal inhibition zone; conditions: Sabouraud's dextrose agar, 37° C., 72 h, DMSO control zone subtracted
Method: as §1

[6] = test system: Chrysosporium keratinophilum; test: as above; conditions: Sabouraud's dextrose agar, 37° C., 72 h, DMSO control zone subtracted
Method: as §1

[7] = A = concentration of comp. = 10,000 μL
[8] = B = concentration of comp. = 30,000 μL
[9] = C = concentration of comp. = 50,000 μL

O=C(O)CSc1nnc(-c2cccc(F)c2)n1-c1ccccc1 [III, 2-(5-(3-fluorophenyl)-4-phenyl-4H-1,2,4-triazol-3-ylthio)acetic acid]
inhibition zone, Bacillus Cereus, A [1, 7]: 23 mm
inhibition zone, Bacillus Cereus, B [1, 8]: 27 mm
inhibition zone, Bacillus Cereus, C [1, 9]: 40 mm
inhibition zone, Escherichia coli, A ([2]; A =): 22 mm
inhibition zone, Escherichia coli, B [2, 8]: 30 mm
inhibition zone, Escherichia coli, C [2, 9]: 49 mm
inhibition zone, Pseudomonas aeruginosa, A [3, 7]: 25 mm
inhibition zone, Pseudomonas aeruginosa, B [3, 8]: 27 mm
inhibition zone, Pseudomonas aeruginosa, C [3, 9]: 46 mm
inhibition zone, Staphylococcus aureus, A [4, 7]: 15 mm
inhibition zone, Staphylococcus aureus, B [4, 8]: 20 mm
inhibition zone, Staphylococcus aureus, C [4, 9]: 24 mm
inhibition zone, Aspergillus flavus, A [5, 7]: 20 mm
inhibition zone, Aspergillus flavus, B [5, 8]: 27 mm
inhibition zone, Aspergillus flavus, C [5, 9]: 36 mm
inhibition zone, Chrysosporium keratinophilum, A [6, 7]: 24 mm
inhibition zone, Chrysosporium keratinophilum, B [6, 8]: 27 mm
inhibition zone, Chrysosporium keratinophilum, C [6, 9]: 44 mm
